Measured values taken from patent US11730712B2, “Functionalized long-chain hydrocarbon mono- and di-carboxylic acids and derivatives thereof, and their use for the prevention or treatment of disease” (ESPERVITA THERAPEUTICS, INC., priority 2021, dated 2023).

Tested on: liver fibrosis gene panel (770 genes)
Test: Nanostring nCounter Fibrosis panel gene expression in liver of DEN-injected mice
Type: in vivo, mouse
Description: Nanostring Analysis. RNA was extracted from paired liver and tumor tissue from vehicle, Compound I-1 (100 mg/kg) and Compound I-32 (100 mg/kg) treated mice using an RNeasy kit (Qiagen, Calif., USA) as per manufacturer's protocol. All RNA samples passed the BioAnalyzer quality control test. The expression of target genes in liver and tumor were analyzed using the nCounter Fibrosis and Cancer Panel (NanoString Technologies, Inc., WA, USA), respectively according to manufacturer's protocol at the McMaster Genomics Facility. Technical and biological normalization against global geometric mean was performed in nSolver 4.0 software (NanoString Technologies). Technical normalization was performed in the nSolver software (version 4.0.70) by normalizing sample target raw counts to the geometric mean of positive control spike-ins. Biological normalization was performed by normalizing sample target raw counts to the geometric mean of selected housekeeping genes (Ppia, Nubp1, Nol7, Armh3, Rplp0, Cnot10, Pgk1, and Acad9). Pathway scores were calculated as the first principal component of the normalized expression values for all genes in each pathway and samples were compiled according to experimental groups to determine average pathway scores. Statistical significance was calculated between experimental groups using multiple t-tests and p-values were corrected for multiple comparisons using Benjamin-Hochberg false discovery rate.
Molecular analysis. To identify the pathways modulated in the liver and tumor tissue, nanostring analysis of fibrosis and cancer, pathways, respectively were completed in an n=8 mice treated with vehicle or Compound I-32 or Compound I-1 at 100 mg/kg.

Question: Which results are given for `CC(C)(CCCCc1ccc(CCCCC(C)(C)C(=O)O)cc1)C(=O)O` [Compound I-1, 6-[4-(5-carboxy-5-methylhexyl)-phenyl]-2,2-dimethylhexanoic acid]?
Answer: number of genes downregulated (100 mg/kg, 4 weeks): 170; number of genes upregulated (100 mg/kg, 4 weeks): 86; number of genes with altered expression relative to vehicle controls (770 genes measured) (100 mg/kg, 4 weeks): 256; Casp7 Log2FC (NM_00761-1, 100 mg/kg, vs vehicle): −0.522; Adh1 Log2FC (NM_007409, 100 mg/kg, vs vehicle): 0.603; Aldh3a2 Log2FC (NM_007437, 100 mg/kg, vs vehicle): 1.1; Ap1s1 Log2FC (NM_007457, 100 mg/kg, vs vehicle): 0.242; Apoa4 Log2FC (NM_007468, 100 mg/kg, vs vehicle): −4.07; Ctnnb1 Log2FC (NM_007614, 100 mg/kg, vs vehicle): −0.17; Cd36 Log2FC (NM_007643, 100 mg/kg, vs vehicle): 1.32; Cdh2 Log2FC (NM_007664, 100 mg/kg, vs vehicle): −0.164; Cebpa Log2FC (NM_007678, 100 mg/kg, vs vehicle): −0.363; Cfi Log2FC (NM_007686, 100 mg/kg, vs vehicle): −0.56; Chil1 Log2FC (NM_007695, 100 mg/kg, vs vehicle): 2.06; Col1a1 Log2FC (NM_007742, 100 mg/kg, vs vehicle): −1.21; Col1a2 Log2FC (NM_007743, 100 mg/kg, vs vehicle): −0.924; Cox6a1 Log2FC (NM_007748, 100 mg/kg, vs vehicle): 0.432; Cox7c Log2FC (NM_007749, 100 mg/kg, vs vehicle): 0.501; Crp Log2FC (NM_007768, 100 mg/kg, vs vehicle): −0.931; Cybb Log2FC (NM_007807, 100 mg/kg, vs vehicle): −0.522; Cyp7a1 Log2FC (NM_007824, 100 mg/kg, vs vehicle): −1.07; Eef2k Log2FC (NM_007908, 100 mg/kg, vs vehicle): 0.422; Ephx2 Log2FC (NM_007940, 100 mg/kg, vs vehicle): 0.794; F5 Log2FC (NM_007976, 100 mg/kg, vs vehicle): −0.363; Fas Log2FC (NM_007987, 100 mg/kg, vs vehicle): 0.528; Fasn Log2FC (NM_007988, 100 mg/kg, vs vehicle): 0.831; Slc37a4 Log2FC (NM_008063, 100 mg/kg, vs vehicle): −1.17; Gas1 Log2FC (NM_008086, 100 mg/kg, vs vehicle): −0.608; Gpc4 Log2FC (NM_008150, 100 mg/kg, vs vehicle): −0.469; Gpr65 Log2FC (NM_008152, 100 mg/kg, vs vehicle): −0.447; Hadh Log2FC (NM_008212, 100 mg/kg, vs vehicle): 0.28; Hmgcs2 Log2FC (NM_008256, 100 mg/kg, vs vehicle): 0.291; Hsd11b1 Log2FC (NM_008288, 100 mg/kg, vs vehicle): −1.33; Hsd17b4 Log2FC (NM_008292, 100 mg/kg, vs vehicle): 0.637; Hsp90ab1 Log2FC (NM_008302, 100 mg/kg, vs vehicle): 0.407; Irf8 Log2FC (NM_008320, 100 mg/kg, vs vehicle): −0.55; ll10ra Log2FC (NM_008348, 100 mg/kg, vs vehicle): −0.737; Irf1 Log2FC (NM_008390, 100 mg/kg, vs vehicle): −0.32; Itch Log2FC (NM_008395, 100 mg/kg, vs vehicle): −0.277; Lpl Log2FC (NM_008509, 100 mg/kg, vs vehicle): 1.98; Lrp1 Log2FC (NM_008512, 100 mg/kg, vs vehicle): −0.339; Cd180 Log2FC (NM_008533, 100 mg/kg, vs vehicle): −0.776; Masp1 Log2FC (NM_008555, 100 mg/kg, vs vehicle): −0.24; Anapc1 Log2FC (NM_008569, 100 mg/kg, vs vehicle): −0.378; Mmp12 Log2FC (NM_008605, 100 mg/kg, vs vehicle): −1.53; Mmp14 Log2FC (NM_008608, 100 mg/kg, vs vehicle): −0.522; Ncf4 Log2FC (NM_008677, 100 mg/kg, vs vehicle): −0.746; Nedd8 Log2FC (NM_008683, 100 mg/kg, vs vehicle): 0.139; Nfkb1 Log2FC (NM_008689, 100 mg/kg, vs vehicle): −0.241; Pcx Log2FC (NM_008797, 100 mg/kg, vs vehicle): −0.57; Plcb3 Log2FC (NM_008874, 100 mg/kg, vs vehicle): −0.321; Plg Log2FC (NM_008877, 100 mg/kg, vs vehicle): −0.393; Ppm1a Log2FC (NM_008910, 100 mg/kg, vs vehicle): 0.148; Map2k1 Log2FC (NM_008927, 100 mg/kg, vs vehicle): −0.145; Psmc3 Log2FC (NM_008948, 100 mg/kg, vs vehicle): 0.145; Rac1 Log2FC (NM_009007, 100 mg/kg, vs vehicle): −0.093; Saa1/2 Log2FC (NM_009117, 100 mg/kg, vs vehicle): −3.03; Scd1 Log2FC (NM_009127, 100 mg/kg, vs vehicle): 0.478; Sem1 Log2FC (NM_009169, 100 mg/kg, vs vehicle): 0.385; Spp1 Log2FC (NM_009263, 100 mg/kg, vs vehicle): −0.879; Ssr4 Log2FC (NM_009279, 100 mg/kg, vs vehicle): −0.321; Tgfbr1 Log2FC (NM_009370, 100 mg/kg, vs vehicle): −0.445; Traf2 Log2FC (NM_009422, 100 mg/kg, vs vehicle): −0.247; Tnfsf10 Log2FC (NM_009425, 100 mg/kg, vs vehicle): −0.823; Axl Log2FC (NM_009465, 100 mg/kg, vs vehicle): −0.493; Apoal Log2FC (NM_009692, 100 mg/kg, vs vehicle): −1.03; Apob Log2FC (NM_009693, 100 mg/kg, vs vehicle): −0.289; Atox1 Log2FC (NM_009720, 100 mg/kg, vs vehicle): 0.157; Bcl2l1 Log2FC (NM_009743, 100 mg/kg, vs vehicle): −0.344; Serping1 Log2FC (NM_009776, 100 mg/kg, vs vehicle): −0.631; C3ar1 Log2FC (NM_009779, 100 mg/kg, vs vehicle): −0.618; Calm1 Log2FC (NM_009790, 100 mg/kg, vs vehicle): −0.334; Casp12 Log2FC (NM_009808, 100 mg/kg, vs vehicle): −0.633; Casp3 Log2FC (NM_009810, 100 mg/kg, vs vehicle): −0.346; Casp6 Log2FC (NM_009811, 100 mg/kg, vs vehicle): 0.266; Casp8 Log2FC (NM_009812, 100 mg/kg, vs vehicle): 0.195; Serpinh1 Log2FC (NM_009825, 100 mg/kg, vs vehicle): −0.486; Cdk4 Log2FC (NM_009870, 100 mg/kg, vs vehicle): 0.26; Cfh Log2FC (NM_009888, 100 mg/kg, vs vehicle): −1.41; Cxcr4 Log2FC (NM_009911, 100 mg/kg, vs vehicle): −0.931; Ccr2 Log2FC (NM_009915, 100 mg/kg, vs vehicle): −1.18; Col3a1 Log2FC (NM_009930, 100 mg/kg, vs vehicle): −0.764; Csnk2b Log2FC (NM_009975, 100 mg/kg, vs vehicle): 0.114; Ctsd Log2FC (NM_009983, 100 mg/kg, vs vehicle): 0.297; Cyp4a10/31/32 Log2FC (NM_010011, 100 mg/kg, vs vehicle): 3.15; Fcer1g Log2FC (NM_010185, 100 mg/kg, vs vehicle): −0.406; Fga Log2FC (NM_010196, 100 mg/kg, vs vehicle): −0.563; Fn1 Log2FC (NM_010233, 100 mg/kg, vs vehicle): −0.666; Got2 Log2FC (NM_010325, 100 mg/kg, vs vehicle): 0.224; H2-Aa Log2FC (NM_010378, 100 mg/kg, vs vehicle): −0.78; H2-D1 Log2FC (NM_010380, 100 mg/kg, vs vehicle): −0.266; H2-Eb1 Log2FC (NM_010382, 100 mg/kg, vs vehicle): −0.772; H2-Dma Log2FC (NM_010386, 100 mg/kg, vs vehicle): −0.391; H2-DMB1 Log2FC (NM_010387, 100 mg/kg, vs vehicle): −0.938; H2-T23 Log2FC (NM_010398, 100 mg/kg, vs vehicle): −0.403; Hc Log2FC (NM_010406, 100 mg/kg, vs vehicle): −0.325; Hif1a Log2FC (NM_010431, 100 mg/kg, vs vehicle): 0.358; Hsp90aa1 Log2FC (NM_010480, 100 mg/kg, vs vehicle): 0.693; Icam1 Log2FC (NM_010493, 100 mg/kg, vs vehicle): −0.371; Ikbkb Log2FC (NM_010546, 100 mg/kg, vs vehicle): −0.395; Ilk Log2FC (NM_010562, 100 mg/kg, vs vehicle): −0.143; Itgb1 Log2FC (NM_010578, 100 mg/kg, vs vehicle): 0.106; Fabp5 Log2FC (NM_010634, 100 mg/kg, vs vehicle): 1.1; Psmb8 Log2FC (NM_010724, 100 mg/kg, vs vehicle): −1.07; Loxl1 Log2FC (NM_010729, 100 mg/kg, vs vehicle): −1.1; Lyn Log2FC (NM_010747, 100 mg/kg, vs vehicle): −0.32; Smad2 Log2FC (NM_010754, 100 mg/kg, vs vehicle): 0.246; Myd88 Log2FC (NM_010851, 100 mg/kg, vs vehicle): 0.261; Nid1 Log2FC (NM_010917, 100 mg/kg, vs vehicle): −0.733; P4hb Log2FC (NM_011032, 100 mg/kg, vs vehicle): −0.842; Pek1 Log2FC (NM_011044, 100 mg/kg, vs vehicle): −1.88; Prkacb Log2FC (NM_011100, 100 mg/kg, vs vehicle): −0.158; Pltp Log2FC (NM_011125, 100 mg/kg, vs vehicle): 1.39; Ppard Log2FC (NM_011145, 100 mg/kg, vs vehicle): −0.466; Pparg Log2FC (NM_011146, 100 mg/kg, vs vehicle): −0.615; Prkdc Log2FC (NM_011159, 100 mg/kg, vs vehicle): −0.568; Pros1 Log2FC (NM_011173, 100 mg/kg, vs vehicle): −0.22; Lgmn Log2FC (NM_011175, 100 mg/kg, vs vehicle): −0.499; Psmb7 Log2FC (NM_011187, 100 mg/kg, vs vehicle): 0.204; Ptprc Log2FC (NM_011210, 100 mg/kg, vs vehicle): −0.49; Rein Log2FC (NM_011261, 100 mg/kg, vs vehicle): −0.45; S100a4 Log2FC (NM_011311, 100 mg/kg, vs vehicle): −1.28; Serpinf1 Log2FC (NM_011340, 100 mg/kg, vs vehicle): −0.18; Sod1 Log2FC (NM_011434, 100 mg/kg, vs vehicle): 0.352; Srebf1 Log2FC (NM_011480, 100 mg/kg, vs vehicle): −0.608; Skp1a Log2FC (NM_011543, 100 mg/kg, vs vehicle): 0.227; Thbs2 Log2FC (NM_011581, 100 mg/kg, vs vehicle): −0.831; Timp2 Log2FC (NM_011594, 100 mg/kg, vs vehicle): −0.609; Tjp2 Log2FC (NM_011597, 100 mg/kg, vs vehicle): 0.204
